Assay results from patent publication US20250127801A1, “BRIDGED TRICYCLIC CARBAMOYLPYRIDONE COMPOUNDS AND USES THEREOF” (priority 2023, published 2025).
≈ marks a conversion by molar mass, not a printed value. Like-named read-outs stand apart in the source and are kept apart here.

Key:
[1] = test system: HIV-1 (IIIB); test: microbe, parasite or virus in culture; type: cell-based
[2] = in vitro; conditions: human; for CC50 at 5 days: uninfected MT-4 cells
[3] = physchem; conditions: 23 °C, thermodynamic from solid; for solubility thermodynamic: fassif; for solubility thermodynamic at 24 h: FaSSIF
[4] = Human immunodeficiency virus 1, IIIB, MT4, 120 h, read-out: MT4 EC50 (nM)
[5] = Human immunodeficiency virus 1, MT4, 120 h, HIV-1 (IIIB) replication in MT-4 cells, 5 days incubation, Cell Titer Glo, read-out: MT4 EC50

Row | EC50 [1, 5] [nM] | solubility thermodynamic at 24 h [3] [µg/mL] | Compound | EC50 [1, 4] [nM] | CC50 [2] [nM] | solubility thermodynamic [3] [µg/mL] | CC50 at 5 days [2] [nM]
1 |  |  | CC1=NO[C@@]2(CC[C@H](C)N3C[C@H]2n2cc(C(=O)NCc4ccc(F)cc4F)c(=O)c(OCOC(=O)N(C)c4ncccc4CN(C)C(=O)OCOP(=O)(O)O)c2C3=O)C1 [Compound 62, (phosphonooxy)methyl ((2-((((((3′S,5S,7′R)-10′-((2,4-difluorobenzyl)carbamoyl)-3,3′-dimethyl-1′,11′-dioxo-1′,4′,5′,11′-tetrahydro-3′H,4H,7′H-spiro[isoxazole-5,6′-[2,7]methanopyrido[1,2-a][1,4]diazonin]-12′-yl)oxy)methoxy)carbonyl)(methyl)amino)pyridin-3-yl)methyl)(methyl)carbamate] | 1.73 | 14600 | 5030 (≈ 5.93 mM) | 
2 |  |  | CC1=NO[C@@]2(CC[C@H](C)N3C[C@H]2n2cc(C(=O)NCc4ccc(F)cc4F)c(=O)c(OCOC(=O)N4CCOC[C@@H]4COP(=O)(O)O)c2C3=O)C1 [Compound 63, (((3′S,5S,7′R)-10′-((2,4-difluorobenzyl)carbamoyl)-3,3′-dimethyl-1′,11′-dioxo-1′,4′,5′,11′-tetrahydro-3′H,4H,7′H-spiro[isoxazole-5,6′-[2,7]methanopyrido[1,2-a][1,4]diazonin]-12′-yl)oxy)methyl (3R)-3-((phosphonooxy)methyl)morpholine-4-carboxylate] | 18.7 | ≥ 50000 | 5000 (≈ 6.76 mM) | 
3 | 21.4 | 4840 (≈ 6.54 mM) | CC1=NO[C@@]2(CC[C@H](C)N3C[C@H]2n2cc(C(=O)NCc4ccc(F)cc4F)c(=O)c(OCOC(=O)N4CCOC[C@H]4COP(=O)(O)O)c2C3=O)C1 [Compound 64, (((3′S,5S,7′R)-10′-((2,4-difluorobenzyl)carbamoyl)-3,3′-dimethyl-1′,11′-dioxo-1′,4′,5′,11′-tetrahydro-3′H,4H,7′H-spiro[isoxazole-5,6′-[2,7]methanopyrido[1,2-a][1,4]diazonin]-12′-yl)oxy)methyl (3S)-3-((phosphonooxy)methyl)morpholine-4-carboxylate] |  |  |  | ≥ 50000
4 | 63.8 | 4820 (≈ 6.67 mM) | CC1=NO[C@@]2(CC[C@H](C)N3C[C@H]2n2cc(C(=O)NCc4ccc(F)cc4F)c(=O)c(OCOC(=O)N4CCC[C@H]4COP(=O)(O)O)c2C3=O)C1 [Compound 66, (((3′S,5S,7′R)-10′-((2,4-difluorobenzyl)carbamoyl)-3,3′-dimethyl-1′,11′-dioxo-1′,4′,5′,11′-tetrahydro-3′H,4H,7′H-spiro[isoxazole-5,6′-[2,7]methanopyrido[1,2-a][1,4]diazonin]-12′-yl)oxy)methyl (2S)-2-((phosphonooxy)methyl)pyrrolidine-1-carboxylate] |  |  |  | ≥ 50000
5 |  |  | CC1=NO[C@@]2(CC[C@H](C)N3C[C@H]2n2cc(C(=O)NCc4ccc(F)cc4F)c(=O)c(OCc4ccccc4OP(=O)(O)O)c2C3=O)C1 [Compound 69, 2-((((3′S,5S,7′R)-10′-((2,4-difluorobenzyl)carbamoyl)-3,3′-dimethyl-1′,11′-dioxo-1′,4′,5′,11′-tetrahydro-3′H,4H,7′H-spiro[isoxazole-5,6′-[2,7]methanopyrido[1,2-a][1,4]diazonin]-12′-yl)oxy)methyl)phenyl dihydrogen phosphate] | 1.78 | 14100 | 5140 | 
6 |  |  | CC1=NO[C@@]2(CC[C@H](C)N3C[C@H]2n2cc(C(=O)NCc4ccc(F)cc4F)c(=O)c(OCc4ccncc4OP(=O)(O)O)c2C3=O)C1 [Compound 70, 4-((((3′S,5S,7′R)-10′-((2,4-difluorobenzyl)carbamoyl)-3,3′-dimethyl-1′,11′-dioxo-1′,4′,5′,11′-tetrahydro-3′H,4H,7′H-spiro[isoxazole-5,6′-[2,7]methanopyrido[1,2-a][1,4]diazonin]-12′-yl)oxy)methyl)pyridin-3-yl dihydrogen phosphate] | 1.63 | 10200 | 2460 | 
7 |  |  | CC1=NO[C@@]2(CC[C@H](C)N3C[C@H]2n2cc(C(=O)NCc4ccc(F)cc4F)c(=O)c(OCc4ccc(OP(=O)(O)O)cn4)c2C3=O)C1 [Compound 71, 6-((((3′S,5S,7′R)-10′-((2,4-difluorobenzyl)carbamoyl)-3,3′-dimethyl-1′,11′-dioxo-1′,4′,5′,11′-tetrahydro-3′H,4H,7′H-spiro[isoxazole-5,6′-[2,7]methanopyrido[1,2-a][1,4]diazonin]-12′-yl)oxy)methyl)pyridin-3-yl dihydrogen phosphate] | 1.02 | 9300 | 3470 | 
8 |  |  | CC1=NO[C@@]2(CC[C@H](C)N3C[C@H]2n2cc(C(=O)NCc4ccc(F)cc4F)c(=O)c(OCOC(=O)OCc4ccncc4OP(=O)(O)O)c2C3=O)C1 [Compound 72, (((3′S,5S,7′R)-10′-((2,4-difluorobenzyl)carbamoyl)-3,3′-dimethyl-1′,11′-dioxo-1′,4′,5′,11′-tetrahydro-3′H,4H,7′H-spiro[isoxazole-5,6′-[2,7]methanopyrido[1,2-a][1,4]diazonin]-12′-yl)oxy)methyl ((3-(phosphonooxy)pyridin-4-yl)methyl) carbonate] | 1.34 | 11200 | 2560 (≈ 3.42 mM) | 
9 |  |  | CC1=NO[C@@]2(CC[C@H](C)N3C[C@H]2n2cc(C(=O)NCc4ccc(F)cc4F)c(=O)c(OCOC(=O)N(C)Cc4ccc(C(=O)O)cc4OP(=O)(O)O)c2C3=O)C1 [Compound 74, 4-(((((((3′S,5S,7′R)-10′-((2,4-difluorobenzyl)carbamoyl)-3,3′-dimethyl-1′,11′-dioxo-1′,4′,5′,11′-tetrahydro-3′H,4H,7′H-spiro[isoxazole-5,6′-[2,7]methanopyrido[1,2-a][1,4]diazonin]-12′-yl)oxy)methoxy)carbonyl)(methyl)amino)methyl)-3-(phosphonooxy)benzoic acid] | 6.61 | 29400 | 4860 (≈ 6.05 mM) | 
10 |  |  | CC1=NO[C@@]2(CC[C@H](C)N3C[C@H]2n2cc(C(=O)NCc4ccc(F)cc4F)c(=O)c(OCOC(=O)N(C)Cc4cc(C(=O)O)ccc4OP(=O)(O)O)c2C3=O)C1 [Compound 76, 3-(((((((3′S,5S,7′R)-10′-((2,4-difluorobenzyl)carbamoyl)-3,3′-dimethyl-1′,11′-dioxo-1′,4′,5′,11′-tetrahydro-3′H,4H,7′H-spiro[isoxazole-5,6′-[2,7]methanopyrido[1,2-a][1,4]diazonin]-12′-yl)oxy)methoxy)carbonyl)(methyl)amino)methyl)-4-(phosphonooxy)benzoic acid] | 4.41 | 12900 | 4060 (≈ 5.05 mM) | 
11 | 2.2 | 5140 (≈ 6.95 mM) | CC1=NO[C@@]2(CC[C@H](C)N3C[C@H]2n2cc(C(=O)NCc4ccc(F)cc4F)c(=O)c(OCOC(=O)[C@@H]4[C@H](COP(=O)(O)O)[C@H]4C(=O)O)c2C3=O)C1 [Compound 78, (1R,2R,3R)-2-(((((3′S,5S,7′R)-10′-((2,4-difluorobenzyl)carbamoyl)-3,3′-dimethyl-1′,11′-dioxo-1′,4′,5′,11′-tetrahydro-3′H,4H,7′H-spiro[isoxazole-5,6′-[2,7]methanopyrido[1,2-a][1,4]diazonin]-12′-yl)oxy)methoxy)carbonyl)-3-((phosphonooxy)methyl)cyclopropane-1-carboxylic acid] |  |  |  | 8050
12 | 2.23 | 4520 (≈ 6.11 mM) | CC1=NO[C@@]2(CC[C@H](C)N3C[C@H]2n2cc(C(=O)NCc4ccc(F)cc4F)c(=O)c(OCOC(=O)[C@H]4[C@@H](COP(=O)(O)O)[C@@H]4C(=O)O)c2C3=O)C1 [Compound 79, (1S,2S,3S)-2-(((((3′S,5S,7′R)-10′-((2,4-difluorobenzyl)carbamoyl)-3,3′-dimethyl-1′,11′-dioxo-1′,4′,5′,11′-tetrahydro-3′H,4H,7′H-spiro[isoxazole-5,6′-[2,7]methanopyrido[1,2-a][1,4]diazonin]-12′-yl)oxy)methoxy)carbonyl)-3-((phosphonooxy)methyl)cyclopropane-1-carboxylic acid] |  |  |  | 12500
13 |  |  | CC1=NO[C@@]2(CC[C@H](C)N3C[C@H]2n2cc(C(=O)NCc4ccc(F)cc4F)c(=O)c(OCOC(=O)[C@@H]4CC[C@@H]4CN(CC(=O)O)C(=O)OCOP(=O)(O)O)c2C3=O)C1 [Compound 80, N-(((1S,2R)-2-(((((3′S,5S,7′R)-10′-((2,4-difluorobenzyl)carbamoyl)-3,3′-dimethyl-1′,11′-dioxo-1′,4′,5′,11′-tetrahydro-3′H,4H,7′H-spiro[isoxazole-5,6′-[2,7]methanopyrido[1,2-a][1,4]diazonin]-12′-yl)oxy)methoxy)carbonyl)cyclobutyl)methyl)-N-(((phosphonooxy)methoxy)carbonyl)glycine] | 0.785 | 10100 | 4150 (≈ 4.94 mM) | 
14 |  |  | CC1=NO[C@@]2(CC[C@H](C)N3C[C@H]2n2cc(C(=O)NCc4ccc(F)cc4F)c(=O)c(OC(=O)N(C)c4ncc(C(=O)N[C@@H](CC(=O)O)C(=O)O)cc4COP(=O)(O)O)c2C3=O)C1 [Compound 84, (6-(((((3′S,5S,7′R)-10′-((2,4-difluorobenzyl)carbamoyl)-3,3′-dimethyl-1′,11′-dioxo-1′,4′,5′,11′-tetrahydro-3′H,4H,7′H-spiro[isoxazole-5,6′-[2,7]methanopyrido[1,2-a][1,4]diazonin]-12′-yl)oxy)carbonyl)(methyl)amino)-5-((phosphonooxy)methyl)nicotinoyl)-L-aspartic acid] | 38 | ≥ 50000 | 5580 (≈ 6.27 mM) | 
15 | 4.42 | 3 (≈ 0.00361 mM) | CCCCCCCCCCCCCC(=O)OCc1ccccc1C(=O)Oc1c2n(cc(C(=O)NCc3ccc(F)cc3F)c1=O)[C@@H]1CN(C2=O)[C@@H](C)CC[C@]12CC(C)=NO2 [Compound 92, (3′S,5S,7′R)-10′-((2,4-difluorobenzyl)carbamoyl)-3,3′-dimethyl-1′,11′-dioxo-1′,4′,5′,11′-tetrahydro-3′H,4H,7′H-spiro[isoxazole-5,6′-[2,7]methanopyrido[1,2-a][1,4]diazonin]-12′-yl 2-((tetradecanoyloxy)methyl)benzoate] |  |  |  | ≥ 50000
